Assay results from publication PMC10950204 (Journal of medicinal chemistry, 2024).
Read-outs that look alike come from different tables or passages of the source.

Legend:
HepG2 = assay: MTS-based cytotoxicity assay; format: cell-based, human
MCF7 = assay: MTS-based cytotoxicity assay; format: cell-based, human
P. falciparum Dd2 [1] = assay: SYBR Green I-based proliferation assay, ring stage parasites; details: for fold loss of antiplasmodial potency: relative to compound 1; for further decrease in the potency: on removing the nitrogen from pyridine / thiophenylpyridine
P. falciparum 3D7 = assay: as above; details: read-out: Antiplasmodial Activity 3D7 EC50, 72 h
human EphA2 = human EphA2 (Homo sapiens, UniProt P29317); assay: SelectScreen kinase profiling, in vitro FRET-based assay; format: biochemical; details: compared to compound 5
[2] = In vitro metabolic stability in mouse liver microsomes; format: in vitro ADME
[3] = system: panel of 468 kinases (403 nonmutant kinases); assay: KINOMEscan Profiling Service, binding at 1 μM; parameters: species or system human; details: screened at 1 μM
[4] = Kinetic solubility, miniaturized shake-flask method; format: physicochemical; details: Table S1, 1× PBS pH 7.4
Caco-2 cells = assay: Caco-2 permeability; format: in vitro ADME; details: Table S1, Caco-2
Synchronized Dd2 culture = assay: Stage specific assay, YOYO-1 flow cytometry and microscopy; format: cell-based, P. falciparum
[5] = system: P. falciparum lines AcAS A597 V, CARL I1139K, PI4K S1320L; assay: Cross resistance evaluation, SYBR Green I assay; format: cell-based; details: PI4K mutant lines
P. falciparum Dd2-B2 = assay: Minimum inoculum of resistance; format: cell-based; details: 3 × EC10, monitored 50 days
[6] = system: P. falciparum strains 3D7, IPC 5188, IPC 5202, IPC 6261; assay: Ring stage survival assay; details: 10 × EC50 for 6 h, survival at 72 h, all strains
[7] = system: P. falciparum strains 3D7, IPC 5188, IPC 5202, IPC 6261; assay: Piperaquine survival assay; details: 10 × EC50 for 48 h, regardless of strain
[8] = system: P. falciparum 3D7 blood-stage parasites; assay: Parasite reduction ratio; details: 10 × EC50, ring stage
[9] = system: asynchronous Dd2 cultures; assay: Rate of killing assay, flow cytometry-based; details: 10 × EC50 for as little as 12 h, washed, monitored 4 days
[10] = system: P. falciparum strains 3D7, IPC 5188, IPC 5202, IPC 6261; assay: EC50 determination in artemisinin and piperaquine resistant isolates; details: all strains, Figure 4C
P. falciparum Dd2 [11] = assay: SYBR Green I-based proliferation assay, asynchronous blood stage cultures; details: compared to compound 5, Dd2
[12] = cited from earlier work
ring stage = details: read-out: ring stage EC50; cited from earlier work

Sequence of human EphA2 (P29317 24-976): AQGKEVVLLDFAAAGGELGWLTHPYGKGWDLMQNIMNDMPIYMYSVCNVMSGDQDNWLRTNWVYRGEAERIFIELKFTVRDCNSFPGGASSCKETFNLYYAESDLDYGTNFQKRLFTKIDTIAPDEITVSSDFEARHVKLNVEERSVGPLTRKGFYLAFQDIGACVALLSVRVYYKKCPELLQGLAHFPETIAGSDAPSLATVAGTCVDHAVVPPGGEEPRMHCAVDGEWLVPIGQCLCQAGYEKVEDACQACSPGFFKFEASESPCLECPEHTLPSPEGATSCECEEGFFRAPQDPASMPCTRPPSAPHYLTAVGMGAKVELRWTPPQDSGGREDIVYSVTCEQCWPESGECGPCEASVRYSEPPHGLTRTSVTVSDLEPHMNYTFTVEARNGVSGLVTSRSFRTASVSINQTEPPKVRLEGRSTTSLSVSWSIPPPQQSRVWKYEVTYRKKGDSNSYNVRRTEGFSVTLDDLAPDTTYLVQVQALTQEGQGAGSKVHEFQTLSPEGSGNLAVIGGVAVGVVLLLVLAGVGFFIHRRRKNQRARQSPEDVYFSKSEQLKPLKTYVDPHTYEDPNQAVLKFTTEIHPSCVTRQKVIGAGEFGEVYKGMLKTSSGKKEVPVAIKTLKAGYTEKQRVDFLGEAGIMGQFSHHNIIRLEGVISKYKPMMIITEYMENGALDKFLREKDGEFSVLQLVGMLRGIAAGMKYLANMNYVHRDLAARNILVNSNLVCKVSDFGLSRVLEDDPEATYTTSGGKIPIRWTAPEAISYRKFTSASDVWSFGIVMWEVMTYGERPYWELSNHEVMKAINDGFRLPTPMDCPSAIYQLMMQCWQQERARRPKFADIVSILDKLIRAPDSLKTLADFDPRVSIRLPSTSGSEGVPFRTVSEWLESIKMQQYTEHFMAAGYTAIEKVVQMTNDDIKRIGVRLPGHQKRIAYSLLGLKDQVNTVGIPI

Compound: 3-Amino-N-(4-((4-ethylpiperazin-1-yl)methyl)-3-(trifluoromethyl)phenyl)-5-methylbenzamide [Compound 28]
- EC50 (HepG2): 3200 ± 238 nM
- Selectivity Index (SI) HepG2 (HepG2; HepG2 EC50/P. falciparum Dd2 EC50): 8.6
- EC50 (MCF7): 5220 ± 517 nM
- Selectivity Index (SI) MCF7 (MCF7; MCF7 EC50/P. falciparum Dd2 EC50): 14
- Resistance Index (RI) (P. falciparum Dd2 [1]; P. falciparum Dd2 EC50/P. falciparum 3D7 EC50): 1.6
- EC50 (P. falciparum Dd2 [1]; read-out: Antiplasmodial Activity Dd2 EC50, ring stage parasites, 72 h): 372 ± 37 nM
- fold loss of antiplasmodial potency (P. falciparum Dd2 [1]): 6 fold
- EC50 (P. falciparum 3D7): 235 ± 34 nM

Compound: CCN1CCN(Cc2ccc(NC(=O)c3cc(Cl)cc(NC(=O)c4cncc(-c5cccs5)c4)c3)cc2C(F)(F)F)CC1 [Compound 1, N-(3-Chloro-5-((4-((4-ethylpiperazin-1-yl)methyl)-3-(trifluoromethyl)phenyl)carbamoyl)phenyl)-5-(thiophen-2-yl)nicotinamide]
- fold reduction in human EphA2 activity (human EphA2): ~900 fold
- microsomal stability and clearance [2]: suitable microsomal stability and low clearance
- S (10) selectivity score [3]: 0.035
- solubility [4]: poor
- cell permeability (Caco-2 cells): poor
- stage specific effect (Synchronized Dd2 culture; 5 × EC50 added at 6 HPI): parasites seemed to remain stunted in the ring stage
- stage specific effect (Synchronized Dd2 culture; 5 × EC50 added at 42 HPI): the effect was much less pronounced
- stage specific effect (Synchronized Dd2 culture; 5 × EC50 applied at both 18 and 30 HPI): there was a delayed shift, and parasites were clearly malformed
- cross-resistance, EC50 among resistant lines [5]: no difference
- parasite recovery under continuous treatment (P. falciparum Dd2-B2): failed to recover within 50 days
- ring stage survival [6]: notably higher than that of the DHA-treated cultures
- survival in piperaquine survival assay [7]: did not survive the 48 h treatment
- 99.9% parasite clearance time (PCT) [8]: less than 32 h
- lag phase [8]: no lag phase detected
- parasite recovery after treatment [9]: failed to recover within 4 days
- EC50 values [10]: low nanomolar range
- fold increase in antiplasmodial activity (P. falciparum Dd2 [11]): over 48 fold

Compound: CCN1CCN(Cc2ccc(NC(=O)c3cc(Cl)cc(NC(=O)c4cccnc4)c3)cc2C(F)(F)F)CC1 [Compound 6, N-(3-Chloro-5-((4-((4-ethylpiperazin-1-yl)methyl)-3-(trifluoromethyl)phenyl)carbamoyl)phenyl)nicotinamide]
- microsomal stability and clearance [2]: metabolized rapidly
- fold loss of antiplasmodial potency (P. falciparum Dd2 [1]): 3 fold

Compound: CCN1CCN(Cc2ccc(NC(=O)c3cc(Cl)cc(NC(=O)c4ccccc4)c3)cc2C(F)(F)F)CC1 [Compound 8, 3-Benzamido-5-chloro-N-(4-((4-ethylpiperazin-1-yl)-methyl)-3-(trifluoromethyl)phenyl)benzamide]
- further decrease in the potency (P. falciparum Dd2 [1]): 4- to 5 fold

Compound: CCN1CCN(Cc2ccc(NC(=O)c3cc(Cl)cc(NC(=O)c4cccc(-c5cccs5)c4)c3)cc2C(F)(F)F)CC1 [Compound 9, 3-Chloro-N-(4-((4-ethylpiperazin-1-yl)methyl)-3-(trifluoromethyl)phenyl)-5-(3-(thiophen-2-yl)benzamido)-benzamide]
- further decrease in the potency (P. falciparum Dd2 [1]): 4- to 5 fold

Compound: CCN1CCN(Cc2ccc(NC(=O)c3cc(Cl)cc(NC(=O)c4cncc(-c5ccc(C#N)cc5)c4)c3)cc2C(F)(F)F)CC1 [Compound 16, N-(3-Chloro-5-((4-((4-ethylpiperazin-1-yl)methyl)-3-(trifluoromethyl)phenyl)carbamoyl)phenyl)-5-(4-cyanophenyl)nicotinamide]
- ring stage survival [6]: notably higher than that of the DHA-treated cultures
- survival in piperaquine survival assay [7]: did not survive the 48 h treatment
- 99.9% parasite clearance time (PCT) [8]: less than 32 h
- lag phase [8]: no lag phase detected
- EC50 values [10]: low nanomolar range

Compound: CCN1CCN(Cc2ccc(NC(=O)c3cc(Cl)cc(Nc4cncc(-c5cccs5)c4)c3)cc2C(F)(F)F)CC1 [Compound 17, 3-Chloro-N-(4-((4-ethylpiperazin-1-yl)methyl)-3-(trifluoromethyl)phenyl)-5-((5-(thiophen-2-yl)pyridin-3-yl)-amino)benzamide]
- fold loss of antiplasmodial potency (P. falciparum Dd2 [1]): 6 fold

Compound: CCN1CCN(Cc2ccc(NC(=O)c3cc(Cl)cc(NCc4cncc(-c5cccs5)c4)c3)cc2C(F)(F)F)CC1 [Compound 18, 3-Chloro-N-(4-((4-ethylpiperazin-1-yl)methyl)-3-(trifluoromethyl)phenyl)-5-(((5-(thiophen-2-yl)pyridin-3-yl)-methyl)amino)benzamide]
- fold loss of antiplasmodial potency (P. falciparum Dd2 [1]): 6 fold

Compound: CCN1CCN(Cc2ccc(NC(=O)c3cc(Cl)cc(NC(=O)c4cncc(-c5cccs5)c4)c3)cc2)CC1 [Compound 22, N-(3-Chloro-5-((4-((4-ethylpiperazin-1-yl)methyl)phenyl)-carbamoyl)phenyl)-5-(thiophen-2-yl)nicotinamide]
- microsomal stability and clearance [2]: suitable microsomal stability and low clearance

Compound: O=C(Nc1ccnc(N2CCOCC2)c1)c1cc(Cl)cc(NC(=O)c2cncc(-c3cccs3)c2)c1 [Compound 23, N-(3-Chloro-5-((2-morpholinopyridin-4-yl)carbamoyl)-phenyl)-5-(thiophen-2-yl)nicotinamide]
- fold loss of antiplasmodial potency (P. falciparum Dd2 [1]): 13 fold

Compound: CCN1CCN(Cc2ccc(NC(=O)c3cc(NC(=O)c4cncc(-c5cccs5)c4)ccc3F)cc2C(F)(F)F)CC1 [Compound 26, N-(3-((4-((4-Ethylpiperazin-1-yl)methyl)-3-(trifluoromethyl)phenyl)carbamoyl)-4-fluorophenyl)-5-(thiophen-2-yl)nicotinamide]
- EC50 (P. falciparum Dd2 [1]; Plasmodium falciparum, DD2, 72 h, read-out: Antiplasmodial Activity Dd2 EC50 (nM), ring stage parasites, 72 h): 867 nM

Compound: CCN1CCN(Cc2ccc(NC(=O)c3cncc(NC(=O)c4cncc(-c5cccs5)c4)c3)cc2C(F)(F)F)CC1 [Compound 30, N-(4-((4-Ethylpiperazin-1-yl)methyl)-3-(trifluoromethyl)-phenyl)-5-(5-(thiophen-2-yl)nicotinamido)nicotinamide]
- microsomal stability and clearance [2]: metabolized rapidly
- improvement in both potency and selectivity (P. falciparum Dd2 [1]; compound 30 relative to compound 29): more than 7 fold

Compound: CCN1CCN(Cc2ccc(NC(=O)c3cc(Br)cc(NC(=O)c4cncc(-c5cccs5)c4)c3)cc2C(F)(F)F)CC1 [Compound 32, N-(3-Bromo-5-((4-((4-ethylpiperazin-1-yl)methyl)-3-(trifluoromethyl)phenyl)carbamoyl)phenyl)-5-(thiophen-2-yl)nicotinamide]
- microsomal stability and clearance [2]: suitable microsomal stability and low clearance

Compound: CCN1CCN(Cc2ccc(NC(=O)c3cc(NC(=O)c4cncc(-c5cccs5)c4)cc(C(F)(F)F)c3)cc2C(F)(F)F)CC1 [Compound 33, N-(3-((4-((4-Ethylpiperazin-1-yl)methyl)-3-(trifluoromethyl)phenyl)carbamoyl)-5-(trifluoromethyl)-phenyl)-5-(thiophen-2-yl)nicotinamide]
- microsomal stability and clearance [2]: suitable microsomal stability and low clearance

Compound: CC1(C)c2nc(-c3ccc(F)cc3)c(Nc3ccc(Cl)cc3)n2CCN1C(=O)CN [GNF179]
- half-life [12]: 8.9 h

Compound: Cc1cn(-c2cc(NC(=O)c3ccc(C)c(Nc4nccc(-c5cccnc5)n4)c3)cc(C(F)(F)F)c2)cn1 [nilotinib]
- EC50 (ring stage): < 1000 nM
